Key:
[1] = Two-photon absorption cross section using reference fluorophore 9-chloroanthracene; assay type: physicochemical; details: at 620 nm, DCM
Description: (§1) Cell images were overlaid using Adobe Photoshop CS3.
Published cross sections for two photon absorption (σ2, the probability of an absorption process or photon interaction) typically show large variations depending on the method of measurement, using either the Z-scan method or a reference fluorophore, and the power range and pulse duration of the laser used for excitation. We have attempted to determine values of σ2 for E-CA4 and E-ACA4 using a reference fluorophore. 9-Chloroanthracene (9CIA) was selected as a standard fluorophore with an appropriate fluorescence spectrum and for which 2PE cross-sections are available. The values of σ2 at 620 nm for E-CA4 and E-CA4F in DCM were determined to be 2.1±0.5 and 2.75±0.6 GM units respectively. […] Values of σ2 at 620 nm for E-ACA and E-DMAC were both 5.7±1.2. These larger values may be consistent with some charge transfer character of the excitation of these compounds.

[2] = test system: human umbilical vein endothelial cells (HUVECs); test: Fluorescence lifetime imaging (FLIM) of uptake and intracellular concentration in HUVECs; assay type: cell-based
Description: as §1
Z-CA4 and analogues exert their anticancer activity by preventing the process of angiogenesis in which a growing tumour is supplied with new vasculature for the supply of nutrients via the bloodstream. We have therefore studied interactions between combretastatins and cultured HUVECs. […] Nevertheless it was possible to obtain images of cells after uptake upon E-combretastatin addition to the supporting medium at relatively low concentrations. […] In addition there are some punctate structures apparent in the images that appear to correlate with lipid droplets identified by Nile Red staining of the same cell. At 37° C. exact co-localization of the sequential images of combretastatin fluorescence and Nile Red labelled lipid droplets, obtained using the two different imaging systems attached to the microscope, is not possible because of the Brownian motion and the occasional rapid saltation of these structures that occur as a result of their transport upon the cellular microtubule network. The fluorescence lifetime distribution of intracellular E-CA4F observed in this cell simultaneously labelled with Nile Red peaks at ˜950 ps. […] This confirms that Nile Red and E-CA4F exist in the same space and are able to come close enough to allow FRET. The long lifetime of E-CA4F fluorescence in the HUVEC cell indicates a viscous environment for E-CA4F within the cell which is consistent with a lipidic location such as a membrane or lipid droplet. Since the fluorescence lifetimes and quantum yields of E-CA4F are directly related, it is possible to combine the FI and lifetime images to calculate the concentration distribution, using a series of standard solutions (DMSO was the chosen solvent with τ 810 ps). […] It is therefore clear that E-CA4F (and other compounds in FIG. 10) are taken up by their target endothelial cell and accumulated by up to 200 times the extracellular concentration of the compound. Similar images have been obtained that show corresponding uptake of E-CA4F within HUVECs from solutions containing as little as 1 μM E-CA4F.

[3] = Fluorescence lifetimes in solvents, two-photon excitation with TCSPC; assay type: physicochemical
Procedure: Fluorescence lifetimes were determined using 2PE at 630 nm with the microscope TCSPC setup (overall time response of 25 ps fwhm) and produced the results shown in Table 1. […] Characterisation of the spectroscopic properties of these latter two compounds remains to be investigated further. […] In the very viscous environment provided by glycerol the lifetime increases further to 1180 ps. In the range of alkanols studied the lifetime is closely correlated with solvent viscosity as shown in the inset to FIG. 3. […] However it is clear that the measured lifetime has the potential to report on cellular environments in FLIM studies. For E-CA4F similar trends are observed, but the overall differences in both lifetimes and quantum yields over the range of solvents are rather less than for E-CA4. The fluorescence lifetimes of E-CA4F are confined to a narrower range having values ranging from 440 ps in methanol through 740 ps in hexane to 1070 ps in glycerol. The more pronounced solvent dependence for E-CA4 no doubt reflects the more polar nature of the molecule compared with E-CA4F. The relative polarities may be judged from the partition coefficients (P) calculated according to the method of Brown et al..

[4] = Fluorescence quantum yields in solvents, UV one-photon excitation; assay type: physicochemical; details: 20° C., 290-300 nm excitation
Procedure: Absorption spectra were measured in either a Perkin Elmer Lambda 25 or 950 spectrophotometer. Fluorescence measurements were made with either a Spex Fluoromax or Varian Cary Eclipse spectrofluorimeter using the spectral correction curves supplied by the manufacturers. Fluorescence quantum yields with UV (one-photon) excitation were determined using either 2-aminopyridine (Φref 0.6 [7]) or 9-chloroanthracene (Φref 0.50 in dichloromethane, determined here relative to 9,10-diphenylanthracene in cyclohexane (Φref 0.97) and anthracene in ethanol (Φref 0.28 [8]) as standards. Fluorescence quantum yields were determined from the relative slopes of plots of integrated fluorescence intensity versus (1-10^−A) for samples having absorbance A≦0.1. The square of the refractive index (n^2) correction was applied when sample and reference compounds were in different solvents. Irradiation of the samples was minimized by the use of narrow excitation slits to reduce simultaneous photoisomerization.
The fluorescence quantum yields for E-CA4F were generally somewhat higher than for E-CA4.

[5] = test system: HeLa cells; test: Fluorescence lifetime imaging (FLIM) of uptake and intracellular concentration in HeLa cells
Procedure: Both HeLa and Chinese hamster ovary (CHO) cells were obtained from the European Collection of Cell Cultures. HeLa cells were cultured in MEM medium (Gibco) containing 10% foetal calf serum, penicillin (100 units/mL), streptomycin (100 μg/mL) and glutamine (2 mM). CHO cells were cultured in DMEM (Gibco) with the same additions as for the HeLa cells. For microscopy the adherent cell cultures were grown in 35 mm diameter glass-bottom culture dishes with optical quality glass (MatTek Corporation) and incubated at 37° C. in a humidified atmosphere containing 5% CO2. Human umbilical vein endothelial cells (HUVECs) were obtained from TCS Cellworks. HUVECs were sub-cultured in basal medium (TCS Cellworks) supplemented with antibiotic supplement/amphotericin-B, following the detailed guidelines provided by TCS Cellworks.
The fluorescence lifetime imaging system with multiphoton excitation employed lasers for multiphoton excitation consisting of a Ti:Sapphire laser, tuneable between 700 and 1000 nm and providing ca 180 fs pulses at 76 MHz, and an optical parametric oscillator (OPO) pumped by a second Ti:Sapphire laser source. Using the doubled idler output of the OPO, useful energies (>200 mW) could be obtained between 550 and 640 nm. Samples were excited on the stage of Nikon TE2000U inverted microscope using a water immersion ×60 objective of NA 1.2. Using the various microscope ports it was possible to record the fluorescence in a number of ways. The fluorescence signal at one port was relayed to a spectrometer (Acton 275) and CCD setup (Andor iDUS) so that emission spectra and intensities could be recorded. Alternatively the fluorescence signal could be routed via a second port to a time-correlated single photon counting (TCSPC) system (Becker and Hickl SPC-830) allowing fluorescence lifetime measurements and fluorescence lifetime imaging (FLIM), using Becker and Hickl software (SPCImage) for analysis. In FLIM mode the fluorescence was isolated by a suitable narrowband interference filter (400IU25 together with BG3 (Comar)). […] Two photon cross sections were determined using a reference fluorophore as a two photon standard as described by Mathai et al., employing published values of the two-photon cross section for 9-chloroanthracene.
Images of intracellular distribution of E-combretastatins in cell monolayers were obtained using fluorescence lifetime imaging, in which the rastered excitation laser beam dwells on each pixel for a few milliseconds and at each position records a nanosecond fluorescence lifetime decay curve using the time-correlated single photon counting method. […]
Quantification of fluorophore concentration from intensity measurements is often difficult.

[6] = HUVEC, 5 μM in medium, 37° C., 60 min
[7] = DCM, 20° C., two-photon excitation 620-630 nm, ne = non-exponential
[8] = DMSO, 20° C., two-photon excitation 620-630 nm
[9] = EtOH, 20° C., two-photon excitation 620-630 nm, ne = non-exponential
[10] = Ethylene glycol, 20° C., two-photon excitation 620-630 nm, ne = non-exponential
[11] = Hexane, 20° C., two-photon excitation 620-630 nm
[12] = MeCN, 20° C., two-photon excitation 620-630 nm, ne = non-exponential
[13] = MeOH, 20° C., two-photon excitation 620-630 nm, ne = non-exponential

Row | SMILES | Two photon absorption cross section σ2 [1] [GM units] | Fluorescence lifetime τ [3, 7] | Fluorescence lifetime τ [3, 8] [ns] | Fluorescence lifetime τ [3, 9] | Fluorescence lifetime τ [3, 10] | Fluorescence lifetime τ [3, 11] [ns] | Fluorescence lifetime τ [3, 12] | Fluorescence lifetime τ [3, 13] | Fluorescence quantum yield φ ([4]; DCM) | other results
1 | COc1ccc(/C=C/c2cc(OC)c(OC)c(OC)c2)cc1F [E-CA4F, (E)-1-(3′,4′,5′-trimethoxyphenyl)-2-(3″-fluoro-4″-methoxyphenyl)ethene] | 2.75±0.6 | 0.61 ns | 0.81 | 0.48 ns | 0.76 ns | 0.75 | 0.59 ns | 0.44 ns | 0.23 | Accumulation relative to the extracellular concentration ([2]; HUVEC endothelial cells): up to 200 times; Intracellular concentration in many parts of the cell [2, 6]: 500 µM; Intracellular concentration in the lipid droplets, peak [2, 6]: over 1 mM; Intracellular concentration as times that added to the surrounding medium ([2]; HUVEC, 5 μM in medium, many parts of the cell): 100 times; Intracellular distribution ([2]; HUVEC, 5 μM, 37° C., 60 min): taken up into the cytoplasmic region of the cell, but excluded from the cell nucleus; Fluorescence lifetime τ ([3]; DMSO standard solutions): 810 ps; Fluorescence lifetime τ ([3]; Glycerol, 20° C., two-photon excitation 620-630 nm, ne = non-exponential): 1.07 ns; Fluorescence lifetime ([3]; glycerol): 1070 ps; Fluorescence lifetime ([3]; hexane): 740 ps; Fluorescence lifetime ([3]; methanol): 440 ps; Fluorescence quantum yield φ ([4]; DMSO): 0.29; Fluorescence quantum yield φ ([4]; EtOH): 0.17; Fluorescence quantum yield φ ([4]; Ethylene glycol): 0.29; Fluorescence quantum yield φ ([4]; Glycerol): 0.42; Fluorescence quantum yield φ ([4]; Hexane): 0.31; Fluorescence quantum yield φ ([4]; MeCN): 0.2; Fluorescence quantum yield φ ([4]; MeOH): 0.15
2 | COc1cc(/C=C/c2ccc(N(C)C)cc2)cc(OC)c1OC [E-DMAC, (E)-1-(3′,4′,5′-Trimethoxyphenyl)-2-(4″-dimethylamino-phenyl)ethene] | 5.7±1.2 | ne | 0.36 | ne | ne | 0.41 | ne | ne | 0.11 | –
3 | COc1cc(C=Cc2ccc(C#N)cc2)cc(OC)c1OC [E-CNCA4, 4-[2-(3,4,5-trimethoxyphenyl)vinyl]benzonitrile] | – | – | 0.71 | – | – | – | – | – | – | Intracellular distribution [5]: accumulates mainly within the cell cytoplasm and is excluded from the cell nucleus
